Experimental data published in PMC11233931, “Remodeling tumor‐associated macrophage for anti‐cancer effects by rational design of irreversible inhibition of mitogen‐activated protein kinase‐activated protein kinase 2” (MedComm, 2024).

Experiments:
Assay in all cases: Eurofins kinase selectivity profile against 380 other human recombinant kinases (Table S2)
Type in all cases: biochemical
[1] = biological target: T1, 380 human recombinant protein kinases (Homo sapiens, UniProt P53350); conditions: Plk1(h), read-out: Inhibition rate
T1 construct: purchased Eurofins (Celle Lévescault)
T1 sequence (P53350 whole entry): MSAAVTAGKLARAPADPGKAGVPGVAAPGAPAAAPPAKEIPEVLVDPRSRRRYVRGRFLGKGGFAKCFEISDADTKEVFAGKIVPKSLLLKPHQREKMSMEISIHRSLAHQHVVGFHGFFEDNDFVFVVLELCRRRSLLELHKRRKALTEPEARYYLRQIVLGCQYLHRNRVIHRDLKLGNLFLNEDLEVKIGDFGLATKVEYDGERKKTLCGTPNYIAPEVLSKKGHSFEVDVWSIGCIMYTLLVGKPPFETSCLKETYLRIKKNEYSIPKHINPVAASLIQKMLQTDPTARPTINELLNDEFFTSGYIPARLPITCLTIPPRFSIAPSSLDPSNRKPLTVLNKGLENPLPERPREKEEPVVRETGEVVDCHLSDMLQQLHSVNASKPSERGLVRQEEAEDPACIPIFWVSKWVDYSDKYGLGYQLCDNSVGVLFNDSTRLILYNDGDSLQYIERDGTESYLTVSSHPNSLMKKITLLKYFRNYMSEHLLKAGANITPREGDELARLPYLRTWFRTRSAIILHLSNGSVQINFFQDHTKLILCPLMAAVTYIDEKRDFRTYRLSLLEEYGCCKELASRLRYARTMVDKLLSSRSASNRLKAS
Outline: (§1)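 Profiling against 380 human recombinant kinases carried out by Eurofins at various compound concentrations.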

[2] = biological target: T2, 380 human recombinant protein kinases (Homo sapiens, UniProt Q15139); conditions: PKCμ(h), read-out: Inhibition rate
T2 construct: purchased Eurofins (Celle Lévescault)
T2 sequence (Q15139 1-912): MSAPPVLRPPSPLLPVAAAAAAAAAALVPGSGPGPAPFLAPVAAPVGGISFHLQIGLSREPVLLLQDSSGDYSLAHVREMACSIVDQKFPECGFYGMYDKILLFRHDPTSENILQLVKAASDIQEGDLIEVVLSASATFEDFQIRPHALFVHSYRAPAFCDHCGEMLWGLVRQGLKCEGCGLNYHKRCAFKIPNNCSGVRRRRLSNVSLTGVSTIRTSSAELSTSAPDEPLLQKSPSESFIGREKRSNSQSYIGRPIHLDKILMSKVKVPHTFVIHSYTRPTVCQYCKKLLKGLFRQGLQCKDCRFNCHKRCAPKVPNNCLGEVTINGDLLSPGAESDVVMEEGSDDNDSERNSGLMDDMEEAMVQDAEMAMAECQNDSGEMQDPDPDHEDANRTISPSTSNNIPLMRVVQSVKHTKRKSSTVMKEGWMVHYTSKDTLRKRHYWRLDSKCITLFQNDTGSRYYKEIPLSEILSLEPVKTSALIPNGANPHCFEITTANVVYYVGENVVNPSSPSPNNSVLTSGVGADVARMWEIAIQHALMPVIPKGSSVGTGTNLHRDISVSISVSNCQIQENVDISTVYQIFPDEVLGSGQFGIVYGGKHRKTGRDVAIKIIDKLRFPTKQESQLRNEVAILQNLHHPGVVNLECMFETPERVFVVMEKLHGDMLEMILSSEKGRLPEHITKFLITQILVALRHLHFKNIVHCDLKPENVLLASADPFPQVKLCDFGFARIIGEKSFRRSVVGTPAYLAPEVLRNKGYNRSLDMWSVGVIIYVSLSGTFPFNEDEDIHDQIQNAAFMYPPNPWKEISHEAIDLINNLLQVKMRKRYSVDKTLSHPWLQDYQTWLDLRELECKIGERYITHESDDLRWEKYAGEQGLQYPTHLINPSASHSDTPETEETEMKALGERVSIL
Outline: as §1

[3] = biological target: T3, 380 human recombinant protein kinases (Homo sapiens, UniProt P15735); conditions: PhKγ2(h), read-out: Inhibition rate
T3 construct: purchased Eurofins (Celle Lévescault)
T3 sequence (P15735 1-406): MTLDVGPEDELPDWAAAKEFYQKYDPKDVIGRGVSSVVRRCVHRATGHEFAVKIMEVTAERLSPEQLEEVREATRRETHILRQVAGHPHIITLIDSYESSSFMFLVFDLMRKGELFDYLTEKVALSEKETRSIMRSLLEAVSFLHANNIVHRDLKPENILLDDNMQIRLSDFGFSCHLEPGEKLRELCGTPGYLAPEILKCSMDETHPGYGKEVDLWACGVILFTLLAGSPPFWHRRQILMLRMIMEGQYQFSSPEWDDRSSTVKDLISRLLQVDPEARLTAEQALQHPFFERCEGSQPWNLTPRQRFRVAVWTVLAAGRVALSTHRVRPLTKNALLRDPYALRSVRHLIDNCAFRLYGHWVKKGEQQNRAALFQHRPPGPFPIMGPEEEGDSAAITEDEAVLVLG
Outline: as §1

[4] = biological target: T4, 380 human recombinant protein kinases (Homo sapiens, UniProt Q15119); conditions: PDHK2(h), read-out: Inhibition rate
T4 construct: purchased Eurofins (Celle Lévescault)
Outline: as §1

[5] = biological target: T5, 380 human recombinant protein kinases (Homo sapiens, UniProt Q9BYT3); conditions: STK33(h), read-out: Inhibition rate (%)
T5 construct: purchased Eurofins (Celle Lévescault)
T5 sequence (Q9BYT3 whole entry): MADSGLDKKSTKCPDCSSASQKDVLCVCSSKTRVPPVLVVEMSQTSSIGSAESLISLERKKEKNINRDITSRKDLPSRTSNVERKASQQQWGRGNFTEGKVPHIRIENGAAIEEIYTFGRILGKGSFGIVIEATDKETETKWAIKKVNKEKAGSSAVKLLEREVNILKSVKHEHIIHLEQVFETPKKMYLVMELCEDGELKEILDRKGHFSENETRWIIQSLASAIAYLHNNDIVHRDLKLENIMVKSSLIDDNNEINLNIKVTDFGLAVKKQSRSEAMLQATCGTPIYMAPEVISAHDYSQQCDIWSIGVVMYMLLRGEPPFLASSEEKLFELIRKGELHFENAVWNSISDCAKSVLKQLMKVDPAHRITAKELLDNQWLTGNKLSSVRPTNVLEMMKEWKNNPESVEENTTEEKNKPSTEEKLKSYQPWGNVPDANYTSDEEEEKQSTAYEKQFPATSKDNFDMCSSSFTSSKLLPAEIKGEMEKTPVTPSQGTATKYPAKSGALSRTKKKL
Outline: as §1

[6] = biological target: T6, 380 human recombinant protein kinases (Homo sapiens, UniProt Q00526); conditions: CDK3/cyclinE(h), read-out: Inhibition rate
T6 construct: purchased Eurofins (Celle Lévescault)
T6 sequence (Q00526 whole entry): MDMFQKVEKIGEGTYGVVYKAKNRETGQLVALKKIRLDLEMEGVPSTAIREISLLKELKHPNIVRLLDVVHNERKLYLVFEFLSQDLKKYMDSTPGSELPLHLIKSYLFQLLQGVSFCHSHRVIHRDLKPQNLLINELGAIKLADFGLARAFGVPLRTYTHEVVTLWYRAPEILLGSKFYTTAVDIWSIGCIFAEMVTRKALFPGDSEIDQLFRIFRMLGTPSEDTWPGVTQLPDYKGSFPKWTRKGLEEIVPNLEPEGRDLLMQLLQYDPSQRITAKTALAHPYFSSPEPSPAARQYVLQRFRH
Outline: as §1

[7] = biological target: T7, 380 human recombinant protein kinases (Homo sapiens, UniProt P06239); conditions: Lck(h), read-out: Inhibition rate
T7 construct: purchased Eurofins (Celle Lévescault)
T7 sequence (P06239 whole entry): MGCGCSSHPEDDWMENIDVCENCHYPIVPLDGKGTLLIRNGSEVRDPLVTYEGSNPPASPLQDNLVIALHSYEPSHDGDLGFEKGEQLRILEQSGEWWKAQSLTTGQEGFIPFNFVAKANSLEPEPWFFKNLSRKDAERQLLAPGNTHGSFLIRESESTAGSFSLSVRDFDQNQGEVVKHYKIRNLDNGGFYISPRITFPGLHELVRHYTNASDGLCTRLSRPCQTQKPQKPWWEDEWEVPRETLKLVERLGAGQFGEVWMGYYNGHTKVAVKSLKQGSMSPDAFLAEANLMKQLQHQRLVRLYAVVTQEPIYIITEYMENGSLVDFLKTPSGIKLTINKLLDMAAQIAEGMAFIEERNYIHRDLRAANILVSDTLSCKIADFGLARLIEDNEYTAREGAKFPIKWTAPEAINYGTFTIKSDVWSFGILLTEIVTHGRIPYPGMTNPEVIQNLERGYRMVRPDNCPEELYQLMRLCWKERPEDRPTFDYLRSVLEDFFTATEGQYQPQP
Outline: as §1

[8] = biological target: T8, 380 human recombinant protein kinases (Homo sapiens, UniProt Q13464); conditions: ROCK-I(h), read-out: Inhibition rate
T8 construct: purchased Eurofins (Celle Lévescault)
T8 sequence (Q13464 whole entry): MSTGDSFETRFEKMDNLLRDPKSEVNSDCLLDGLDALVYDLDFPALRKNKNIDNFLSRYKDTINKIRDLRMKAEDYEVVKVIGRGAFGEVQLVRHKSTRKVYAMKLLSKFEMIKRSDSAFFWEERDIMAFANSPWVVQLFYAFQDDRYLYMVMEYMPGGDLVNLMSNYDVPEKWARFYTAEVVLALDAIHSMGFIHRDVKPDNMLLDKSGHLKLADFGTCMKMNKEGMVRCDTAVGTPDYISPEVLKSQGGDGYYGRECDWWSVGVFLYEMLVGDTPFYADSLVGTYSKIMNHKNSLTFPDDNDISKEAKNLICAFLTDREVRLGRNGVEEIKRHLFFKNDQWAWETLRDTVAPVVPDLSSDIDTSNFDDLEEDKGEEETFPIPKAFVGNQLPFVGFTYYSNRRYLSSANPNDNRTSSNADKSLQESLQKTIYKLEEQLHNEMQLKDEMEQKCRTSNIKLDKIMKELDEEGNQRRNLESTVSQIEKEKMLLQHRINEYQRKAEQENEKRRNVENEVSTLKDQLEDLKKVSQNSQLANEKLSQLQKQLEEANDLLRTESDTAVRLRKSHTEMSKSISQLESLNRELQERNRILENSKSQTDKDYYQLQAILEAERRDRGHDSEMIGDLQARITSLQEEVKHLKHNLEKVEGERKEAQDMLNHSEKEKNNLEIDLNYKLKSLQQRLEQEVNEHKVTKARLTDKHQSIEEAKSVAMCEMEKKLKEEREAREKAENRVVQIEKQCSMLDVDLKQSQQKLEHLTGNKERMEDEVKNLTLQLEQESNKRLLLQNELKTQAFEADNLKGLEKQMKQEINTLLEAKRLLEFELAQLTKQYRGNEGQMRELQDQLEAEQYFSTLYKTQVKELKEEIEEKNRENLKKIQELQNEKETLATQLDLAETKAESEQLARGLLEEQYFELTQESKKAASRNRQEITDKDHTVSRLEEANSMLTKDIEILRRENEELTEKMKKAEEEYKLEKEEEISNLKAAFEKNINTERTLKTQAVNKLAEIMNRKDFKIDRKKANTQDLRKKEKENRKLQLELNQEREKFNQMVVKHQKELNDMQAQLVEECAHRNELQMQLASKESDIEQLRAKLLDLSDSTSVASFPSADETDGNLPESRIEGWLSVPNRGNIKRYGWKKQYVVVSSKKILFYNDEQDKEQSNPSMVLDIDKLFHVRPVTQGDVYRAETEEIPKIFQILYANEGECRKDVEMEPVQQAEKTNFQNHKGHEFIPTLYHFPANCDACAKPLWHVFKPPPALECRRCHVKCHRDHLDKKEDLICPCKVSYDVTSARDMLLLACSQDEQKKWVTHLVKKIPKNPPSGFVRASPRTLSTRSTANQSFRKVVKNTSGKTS
Outline: as §1

[9] = biological target: T9, 380 human recombinant protein kinases (Homo sapiens, UniProt P17612); conditions: PKA(h), read-out: Inhibition rate
T9 construct: purchased Eurofins (Celle Lévescault)
Outline: as §1

[10] = biological target: T10, 380 human recombinant protein kinases (Homo sapiens, UniProt Q14680); conditions: MELK(h), read-out: Inhibition rate
T10 construct: purchased Eurofins (Celle Lévescault)
T10 sequence (Q14680 whole entry): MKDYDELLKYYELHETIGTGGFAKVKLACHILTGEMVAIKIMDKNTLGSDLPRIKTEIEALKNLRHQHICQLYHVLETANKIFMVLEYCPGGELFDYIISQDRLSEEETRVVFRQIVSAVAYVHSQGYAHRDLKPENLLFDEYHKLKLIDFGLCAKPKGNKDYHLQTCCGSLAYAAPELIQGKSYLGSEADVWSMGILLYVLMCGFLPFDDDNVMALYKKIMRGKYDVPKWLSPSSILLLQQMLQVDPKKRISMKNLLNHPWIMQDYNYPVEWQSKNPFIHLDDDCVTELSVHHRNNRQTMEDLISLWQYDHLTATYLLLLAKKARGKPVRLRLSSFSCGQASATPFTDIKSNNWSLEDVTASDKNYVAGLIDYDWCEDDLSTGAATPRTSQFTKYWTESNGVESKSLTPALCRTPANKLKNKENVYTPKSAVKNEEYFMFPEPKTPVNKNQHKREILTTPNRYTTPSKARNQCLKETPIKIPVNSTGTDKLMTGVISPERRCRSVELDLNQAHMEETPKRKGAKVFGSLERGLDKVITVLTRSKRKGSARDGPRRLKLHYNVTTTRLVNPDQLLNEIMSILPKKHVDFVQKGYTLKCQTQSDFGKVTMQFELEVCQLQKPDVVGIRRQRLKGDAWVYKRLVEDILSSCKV
Outline: as §1

[11] = biological target: T11, 380 human recombinant protein kinases (Homo sapiens, UniProt P22694); conditions: PKAcβ(h), read-out: Inhibition rate
T11 construct: purchased Eurofins (Celle Lévescault)
Outline: as §1

[12] = biological target: T12, 380 human recombinant protein kinases (Homo sapiens, UniProt Q08345); conditions: DDR1(h), read-out: Inhibition rate
T12 construct: purchased Eurofins (Celle Lévescault)
T12 sequence (Q08345 19-913): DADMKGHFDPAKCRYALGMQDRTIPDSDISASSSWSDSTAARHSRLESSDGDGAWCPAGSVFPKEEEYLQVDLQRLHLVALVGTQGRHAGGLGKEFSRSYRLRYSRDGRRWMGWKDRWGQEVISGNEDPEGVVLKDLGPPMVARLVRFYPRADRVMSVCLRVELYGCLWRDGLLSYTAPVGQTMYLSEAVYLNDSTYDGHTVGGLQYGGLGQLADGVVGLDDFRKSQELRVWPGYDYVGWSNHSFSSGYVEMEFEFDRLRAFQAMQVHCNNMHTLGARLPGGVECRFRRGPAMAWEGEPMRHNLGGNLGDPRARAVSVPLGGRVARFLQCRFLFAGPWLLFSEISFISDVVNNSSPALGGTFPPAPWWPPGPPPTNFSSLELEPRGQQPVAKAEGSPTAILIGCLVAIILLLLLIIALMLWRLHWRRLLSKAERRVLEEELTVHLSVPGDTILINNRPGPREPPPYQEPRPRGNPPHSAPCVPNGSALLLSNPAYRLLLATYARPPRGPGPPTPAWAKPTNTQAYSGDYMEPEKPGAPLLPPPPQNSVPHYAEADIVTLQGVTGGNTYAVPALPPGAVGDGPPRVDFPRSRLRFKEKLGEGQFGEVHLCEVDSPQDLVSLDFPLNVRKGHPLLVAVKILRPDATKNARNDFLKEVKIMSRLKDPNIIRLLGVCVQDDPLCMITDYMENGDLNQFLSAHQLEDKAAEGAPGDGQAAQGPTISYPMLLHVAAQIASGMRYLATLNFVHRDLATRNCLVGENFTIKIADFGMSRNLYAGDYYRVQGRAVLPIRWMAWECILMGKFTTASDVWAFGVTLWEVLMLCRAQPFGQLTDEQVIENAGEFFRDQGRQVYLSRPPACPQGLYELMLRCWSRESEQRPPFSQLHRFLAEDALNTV
Outline: as §1

For `C=CC(=O)Nc1cc(-c2cc(-c3cc4c([nH]3)CCNC4=O)ccn2)ccc1OC(F)(F)F` [compound 11], the inhibition at 0.01 µM ([1]; 10 nM) was 13%, the inhibition at 0.1 µM ([1]; 100 nM) was 15% and the inhibition at 1 µM ([1]; 1000 nM) was 13%. It also gave an inhibition at 0.01 µM ([2]; 10 nM) of -6%, an inhibition at 0.1 µM ([2]; 100 nM) of 13% and an inhibition at 1 µM ([2]; 1000 nM) of 45%. For the same compound, the inhibition at 0.01 µM ([3]; 10 nM) was 8%, the inhibition at 0.1 µM ([3]; 100 nM) was 1% and the inhibition at 1 µM ([3]; 1000 nM) was 2%. For the same compound, the inhibition at 0.01 µM ([4]; 10 nM) was -8%, the inhibition at 0.1 µM ([4]; 100 nM) was 6% and the inhibition at 1 µM ([4]; 1000 nM) was 0%. It also gave an inhibition at 0.01 µM ([5]; 10 nM) of 8%, an inhibition at 0.1 µM ([5]; 100 nM) of 18% and an inhibition at 1 µM ([5]; 1000 nM) of 64%. For the same compound, the inhibition at 0.01 µM ([6]; 10 nM) was -5%, the inhibition at 0.1 µM ([6]; 100 nM) was -1% and the inhibition at 1 µM ([6]; 1000 nM) was 0%. The inhibition at 0.01 µM ([7]; 10 nM) was -7%, the inhibition at 0.1 µM ([7]; 100 nM) was -5% and the inhibition at 1 µM ([7]; 1000 nM) was -10%. The inhibition at 0.01 µM ([8]; 10 nM) was 2%, the inhibition at 0.1 µM ([8]; 100 nM) was -1% and the inhibition at 1 µM ([8]; 1000 nM) was -7%. It also gave an inhibition at 0.01 µM ([9]; 10 nM) of -7%, an inhibition at 0.1 µM ([9]; 100 nM) of -7% and an inhibition at 1 µM ([9]; 1000 nM) of -6%. It also gave an inhibition at 0.01 µM ([10]; 10 nM) of -7%, an inhibition at 0.1 µM ([10]; 100 nM) of 5% and an inhibition at 1 µM ([10]; 1000 nM) of 30%. It also gave an inhibition at 0.01 µM ([11]; 10 nM) of -11%, an inhibition at 0.1 µM ([11]; 100 nM) of -4% and an inhibition at 1 µM ([11]; 1000 nM) of 5%. It also gave an inhibition at 0.01 µM ([12]; 10 nM) of 0%, an inhibition at 0.1 µM ([12]; 100 nM) of -1% and an inhibition at 1 µM ([12]; 1000 nM) of -7%.
